# Measurements published in ChEMBL document CHEMBL5291721, “A preclinical secondary pharmacology resource illuminates target-adverse drug reaction associations of marketed drugs” (Nat Commun, 2023).
# Assays:
# [1] = molecular target: Histamine H2 receptor (Homo sapiens, UniProt P25021); assay type: functional, cell-based
# [2] = molecular target: 5-hydroxytryptamine receptor 2B (Homo sapiens, UniProt P41595); assay type: functional, cell-based
# [3] = molecular target: Neuronal acetylcholine receptor subunit alpha-4 (Homo sapiens, UniProt P43681)
# Chain of Neuronal acetylcholine receptor subunit alpha-4 (P43681 whole entry): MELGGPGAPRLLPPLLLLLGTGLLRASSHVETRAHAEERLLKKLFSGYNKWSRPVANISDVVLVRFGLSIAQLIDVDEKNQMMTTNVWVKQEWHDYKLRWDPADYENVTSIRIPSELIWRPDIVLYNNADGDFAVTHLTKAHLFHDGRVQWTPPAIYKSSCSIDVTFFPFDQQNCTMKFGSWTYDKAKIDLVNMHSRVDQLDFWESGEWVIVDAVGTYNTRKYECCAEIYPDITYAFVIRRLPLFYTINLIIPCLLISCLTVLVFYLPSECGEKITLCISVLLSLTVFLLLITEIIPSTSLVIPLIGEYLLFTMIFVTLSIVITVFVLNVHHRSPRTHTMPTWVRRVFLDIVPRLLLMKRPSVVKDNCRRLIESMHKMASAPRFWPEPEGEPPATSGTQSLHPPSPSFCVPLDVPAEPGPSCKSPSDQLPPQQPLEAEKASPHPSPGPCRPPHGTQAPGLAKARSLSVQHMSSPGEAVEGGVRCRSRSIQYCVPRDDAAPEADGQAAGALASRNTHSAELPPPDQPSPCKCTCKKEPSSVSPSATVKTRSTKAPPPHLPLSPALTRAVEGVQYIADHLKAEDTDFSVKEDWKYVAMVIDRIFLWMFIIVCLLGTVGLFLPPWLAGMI
# [4] = molecular target: Histamine H1 receptor (Homo sapiens, UniProt P35367)
# Chain of Histamine H1 receptor (P35367 whole entry): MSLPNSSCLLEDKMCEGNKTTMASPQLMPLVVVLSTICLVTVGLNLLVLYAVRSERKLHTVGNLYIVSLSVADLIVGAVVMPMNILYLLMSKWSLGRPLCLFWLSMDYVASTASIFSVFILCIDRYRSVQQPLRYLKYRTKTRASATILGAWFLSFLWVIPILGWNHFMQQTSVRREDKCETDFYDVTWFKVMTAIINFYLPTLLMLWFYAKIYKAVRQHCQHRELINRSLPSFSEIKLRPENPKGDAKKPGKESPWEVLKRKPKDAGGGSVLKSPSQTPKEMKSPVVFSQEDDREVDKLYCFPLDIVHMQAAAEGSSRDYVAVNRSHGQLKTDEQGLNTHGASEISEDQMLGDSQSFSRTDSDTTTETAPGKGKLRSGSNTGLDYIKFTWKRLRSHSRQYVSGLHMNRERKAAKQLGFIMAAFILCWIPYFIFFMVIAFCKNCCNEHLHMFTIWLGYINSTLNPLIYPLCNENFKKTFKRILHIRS
# [5] = molecular target: cGMP-inhibited 3',5'-cyclic phosphodiesterase 3A (Homo sapiens, UniProt Q14432); assay type: functional
# Chain of cGMP-inhibited 3',5'-cyclic phosphodiesterase 3A (Q14432 whole entry): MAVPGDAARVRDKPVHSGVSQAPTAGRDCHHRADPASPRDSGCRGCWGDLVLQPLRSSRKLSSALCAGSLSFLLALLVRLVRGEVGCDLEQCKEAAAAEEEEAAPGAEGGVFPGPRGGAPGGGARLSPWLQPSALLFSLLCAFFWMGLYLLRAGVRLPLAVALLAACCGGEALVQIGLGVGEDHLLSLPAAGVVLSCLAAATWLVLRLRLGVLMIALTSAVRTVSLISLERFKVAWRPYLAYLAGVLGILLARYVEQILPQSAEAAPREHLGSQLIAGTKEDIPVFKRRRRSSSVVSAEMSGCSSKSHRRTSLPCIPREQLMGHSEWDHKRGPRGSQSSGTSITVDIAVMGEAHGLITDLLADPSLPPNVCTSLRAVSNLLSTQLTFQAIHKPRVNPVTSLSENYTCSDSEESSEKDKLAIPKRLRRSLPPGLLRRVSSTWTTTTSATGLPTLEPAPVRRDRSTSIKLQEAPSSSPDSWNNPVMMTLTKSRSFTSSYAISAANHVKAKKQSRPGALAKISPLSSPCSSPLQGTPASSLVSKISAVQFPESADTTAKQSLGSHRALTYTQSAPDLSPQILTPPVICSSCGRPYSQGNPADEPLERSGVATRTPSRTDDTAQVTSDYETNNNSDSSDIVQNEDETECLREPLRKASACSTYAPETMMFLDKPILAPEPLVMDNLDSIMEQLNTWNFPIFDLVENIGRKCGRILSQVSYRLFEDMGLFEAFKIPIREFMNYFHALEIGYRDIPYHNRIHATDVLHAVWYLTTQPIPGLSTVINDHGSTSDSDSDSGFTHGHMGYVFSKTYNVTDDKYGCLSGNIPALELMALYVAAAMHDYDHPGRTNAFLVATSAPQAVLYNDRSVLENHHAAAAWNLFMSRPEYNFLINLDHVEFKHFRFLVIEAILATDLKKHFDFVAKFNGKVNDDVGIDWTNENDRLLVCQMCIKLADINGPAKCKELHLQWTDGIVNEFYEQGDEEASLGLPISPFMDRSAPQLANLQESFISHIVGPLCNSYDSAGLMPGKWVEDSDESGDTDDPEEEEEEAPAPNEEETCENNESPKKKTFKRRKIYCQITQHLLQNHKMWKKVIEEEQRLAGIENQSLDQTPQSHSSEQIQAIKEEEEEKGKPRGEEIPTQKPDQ
# [6] = molecular target: T1, Type-1 angiotensin II receptor (Homo sapiens, UniProt P30556)
# T1 sequence (P30556 whole entry): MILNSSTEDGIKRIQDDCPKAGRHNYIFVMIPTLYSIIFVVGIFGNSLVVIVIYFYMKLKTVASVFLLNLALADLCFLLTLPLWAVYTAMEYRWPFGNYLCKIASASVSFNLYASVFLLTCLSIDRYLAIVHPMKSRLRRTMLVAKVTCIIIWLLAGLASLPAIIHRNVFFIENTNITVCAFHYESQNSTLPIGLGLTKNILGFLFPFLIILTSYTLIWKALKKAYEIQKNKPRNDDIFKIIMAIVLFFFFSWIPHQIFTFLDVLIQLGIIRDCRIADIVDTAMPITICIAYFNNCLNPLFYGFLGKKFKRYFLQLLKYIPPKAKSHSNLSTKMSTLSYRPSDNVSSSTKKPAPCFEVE
# [7] = molecular target: T2, Gastrin/cholecystokinin type B receptor (Homo sapiens, UniProt P32239)
# T2 sequence (P32239 whole entry): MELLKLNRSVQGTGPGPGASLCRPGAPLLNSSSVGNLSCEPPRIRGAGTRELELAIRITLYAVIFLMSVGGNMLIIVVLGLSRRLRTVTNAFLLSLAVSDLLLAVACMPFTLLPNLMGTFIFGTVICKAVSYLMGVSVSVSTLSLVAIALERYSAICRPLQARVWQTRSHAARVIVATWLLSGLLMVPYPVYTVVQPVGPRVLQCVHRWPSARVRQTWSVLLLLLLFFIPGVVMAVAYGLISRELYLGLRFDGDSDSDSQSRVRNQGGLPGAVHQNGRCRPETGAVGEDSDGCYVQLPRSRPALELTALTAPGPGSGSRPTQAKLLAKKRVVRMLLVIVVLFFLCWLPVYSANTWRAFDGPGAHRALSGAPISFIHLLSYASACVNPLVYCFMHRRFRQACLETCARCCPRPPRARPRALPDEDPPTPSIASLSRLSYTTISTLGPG
# [8] = molecular target: Growth hormone secretagogue receptor type 1 (Homo sapiens, UniProt Q92847)
# Chain of Growth hormone secretagogue receptor type 1 (Q92847 whole entry): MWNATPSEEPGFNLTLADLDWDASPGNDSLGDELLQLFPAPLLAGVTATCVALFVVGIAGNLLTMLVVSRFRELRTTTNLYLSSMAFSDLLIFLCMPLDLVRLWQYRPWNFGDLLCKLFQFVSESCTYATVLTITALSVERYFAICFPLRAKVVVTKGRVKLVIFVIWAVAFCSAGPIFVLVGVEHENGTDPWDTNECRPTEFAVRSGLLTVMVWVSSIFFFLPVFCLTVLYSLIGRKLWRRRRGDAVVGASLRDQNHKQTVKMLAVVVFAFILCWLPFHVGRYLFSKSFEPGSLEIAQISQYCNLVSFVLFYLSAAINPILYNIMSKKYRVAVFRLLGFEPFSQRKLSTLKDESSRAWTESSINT
# [9] = molecular target: Gamma-aminobutyric acid receptor subunit alpha-1 (Rattus norvegicus, UniProt P62813); assay type: functional
# [10] = molecular target: Muscarinic acetylcholine receptor M3 (Homo sapiens, UniProt P20309)
# Chain of Muscarinic acetylcholine receptor M3 (P20309 whole entry): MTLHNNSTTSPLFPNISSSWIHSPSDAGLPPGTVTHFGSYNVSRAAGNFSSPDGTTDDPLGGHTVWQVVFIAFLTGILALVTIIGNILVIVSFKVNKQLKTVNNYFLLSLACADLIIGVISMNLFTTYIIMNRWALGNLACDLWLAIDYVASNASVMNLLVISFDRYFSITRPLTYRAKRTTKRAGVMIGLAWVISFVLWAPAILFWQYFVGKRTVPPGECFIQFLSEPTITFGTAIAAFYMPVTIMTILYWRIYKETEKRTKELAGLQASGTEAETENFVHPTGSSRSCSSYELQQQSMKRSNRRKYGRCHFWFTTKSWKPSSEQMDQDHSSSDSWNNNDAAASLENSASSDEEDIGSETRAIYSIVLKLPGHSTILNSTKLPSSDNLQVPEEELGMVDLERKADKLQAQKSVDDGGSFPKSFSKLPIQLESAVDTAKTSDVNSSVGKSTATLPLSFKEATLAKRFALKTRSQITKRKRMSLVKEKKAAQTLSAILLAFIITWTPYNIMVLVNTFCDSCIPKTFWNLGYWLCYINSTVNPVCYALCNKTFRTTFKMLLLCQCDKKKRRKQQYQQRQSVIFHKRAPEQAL
# [11] = molecular target: Sodium-dependent serotonin transporter (Homo sapiens, UniProt P31645)
# Chain of Sodium-dependent serotonin transporter (P31645 whole entry): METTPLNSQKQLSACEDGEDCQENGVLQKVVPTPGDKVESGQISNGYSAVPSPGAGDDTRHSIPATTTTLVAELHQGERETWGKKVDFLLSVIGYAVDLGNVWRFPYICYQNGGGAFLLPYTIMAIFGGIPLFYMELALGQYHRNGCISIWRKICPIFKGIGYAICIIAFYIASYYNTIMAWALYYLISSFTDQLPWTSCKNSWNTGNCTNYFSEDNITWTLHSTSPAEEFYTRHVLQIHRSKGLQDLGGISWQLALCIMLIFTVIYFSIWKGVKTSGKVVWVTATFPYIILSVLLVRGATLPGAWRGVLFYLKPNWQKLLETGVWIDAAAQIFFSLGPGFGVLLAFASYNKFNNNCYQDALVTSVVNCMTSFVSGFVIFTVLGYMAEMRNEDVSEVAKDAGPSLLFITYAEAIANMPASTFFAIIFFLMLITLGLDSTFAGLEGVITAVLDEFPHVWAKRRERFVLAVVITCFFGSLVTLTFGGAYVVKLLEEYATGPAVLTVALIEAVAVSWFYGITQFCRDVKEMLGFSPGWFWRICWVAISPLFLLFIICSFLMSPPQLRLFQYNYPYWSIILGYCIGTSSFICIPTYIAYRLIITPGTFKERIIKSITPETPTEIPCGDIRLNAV
# [12] = molecular target: Delta-type opioid receptor (Homo sapiens, UniProt P41143)
# Chain of Delta-type opioid receptor (P41143 whole entry): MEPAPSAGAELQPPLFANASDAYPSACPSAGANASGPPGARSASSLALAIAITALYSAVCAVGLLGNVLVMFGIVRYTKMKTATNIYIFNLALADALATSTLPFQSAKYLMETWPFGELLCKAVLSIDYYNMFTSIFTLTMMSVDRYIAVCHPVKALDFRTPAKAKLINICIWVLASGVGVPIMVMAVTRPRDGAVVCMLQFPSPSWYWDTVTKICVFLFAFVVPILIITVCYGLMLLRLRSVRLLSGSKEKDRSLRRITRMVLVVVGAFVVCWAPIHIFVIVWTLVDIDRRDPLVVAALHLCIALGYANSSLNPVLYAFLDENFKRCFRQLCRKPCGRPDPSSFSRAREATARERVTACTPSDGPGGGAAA
# [13] = molecular target: T3, 5-hydroxytryptamine receptor 1A (Homo sapiens, UniProt P08908); assay type: functional, cell-based
# T3 sequence (P08908 whole entry): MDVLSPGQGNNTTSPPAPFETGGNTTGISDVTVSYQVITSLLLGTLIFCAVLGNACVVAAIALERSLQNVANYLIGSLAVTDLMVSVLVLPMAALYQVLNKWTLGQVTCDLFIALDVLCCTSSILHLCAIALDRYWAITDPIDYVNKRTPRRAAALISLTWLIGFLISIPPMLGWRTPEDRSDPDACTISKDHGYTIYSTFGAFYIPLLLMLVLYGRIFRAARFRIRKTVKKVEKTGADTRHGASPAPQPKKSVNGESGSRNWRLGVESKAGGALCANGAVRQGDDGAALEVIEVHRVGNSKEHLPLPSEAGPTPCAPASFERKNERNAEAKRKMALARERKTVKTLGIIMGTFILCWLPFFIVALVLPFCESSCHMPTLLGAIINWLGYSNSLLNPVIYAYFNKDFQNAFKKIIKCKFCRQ
# [14] = molecular target: T4, Alpha-2A adrenergic receptor (Homo sapiens, UniProt P08913); assay type: functional, cell-based
# T4 sequence (P08913 whole entry): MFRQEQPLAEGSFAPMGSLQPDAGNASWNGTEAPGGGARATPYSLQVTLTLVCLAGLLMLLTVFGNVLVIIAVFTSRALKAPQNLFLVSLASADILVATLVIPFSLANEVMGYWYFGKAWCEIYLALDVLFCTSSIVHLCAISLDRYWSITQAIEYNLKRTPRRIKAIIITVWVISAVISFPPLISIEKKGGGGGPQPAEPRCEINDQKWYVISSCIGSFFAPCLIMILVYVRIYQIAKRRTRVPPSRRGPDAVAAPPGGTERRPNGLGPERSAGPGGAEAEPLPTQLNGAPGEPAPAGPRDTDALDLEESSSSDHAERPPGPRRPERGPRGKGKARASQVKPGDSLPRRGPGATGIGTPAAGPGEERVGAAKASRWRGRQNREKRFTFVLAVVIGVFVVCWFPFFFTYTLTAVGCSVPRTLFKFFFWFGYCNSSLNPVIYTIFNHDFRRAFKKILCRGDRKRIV
# [15] = molecular target: D(1A) dopamine receptor (Homo sapiens, UniProt P21728); assay type: functional, cell-based
# [16] = molecular target: Mu-type opioid receptor (Homo sapiens, UniProt P35372); assay: biochemical; assay type: functional
# Chain of Mu-type opioid receptor (P35372 whole entry): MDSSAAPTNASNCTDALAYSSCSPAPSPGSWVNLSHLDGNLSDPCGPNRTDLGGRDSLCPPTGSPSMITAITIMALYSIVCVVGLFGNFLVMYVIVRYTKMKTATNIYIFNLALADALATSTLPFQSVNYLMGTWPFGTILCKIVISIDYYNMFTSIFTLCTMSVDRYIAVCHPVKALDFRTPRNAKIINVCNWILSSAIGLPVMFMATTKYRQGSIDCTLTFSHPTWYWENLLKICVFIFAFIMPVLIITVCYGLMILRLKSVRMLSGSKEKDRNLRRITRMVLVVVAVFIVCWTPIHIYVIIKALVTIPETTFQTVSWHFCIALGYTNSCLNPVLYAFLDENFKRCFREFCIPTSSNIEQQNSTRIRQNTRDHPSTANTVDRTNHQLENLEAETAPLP
# [17] = molecular target: T5, Muscarinic acetylcholine receptor M2 (Homo sapiens, UniProt P08172); assay type: functional, cell-based
# T5 sequence (P08172 whole entry): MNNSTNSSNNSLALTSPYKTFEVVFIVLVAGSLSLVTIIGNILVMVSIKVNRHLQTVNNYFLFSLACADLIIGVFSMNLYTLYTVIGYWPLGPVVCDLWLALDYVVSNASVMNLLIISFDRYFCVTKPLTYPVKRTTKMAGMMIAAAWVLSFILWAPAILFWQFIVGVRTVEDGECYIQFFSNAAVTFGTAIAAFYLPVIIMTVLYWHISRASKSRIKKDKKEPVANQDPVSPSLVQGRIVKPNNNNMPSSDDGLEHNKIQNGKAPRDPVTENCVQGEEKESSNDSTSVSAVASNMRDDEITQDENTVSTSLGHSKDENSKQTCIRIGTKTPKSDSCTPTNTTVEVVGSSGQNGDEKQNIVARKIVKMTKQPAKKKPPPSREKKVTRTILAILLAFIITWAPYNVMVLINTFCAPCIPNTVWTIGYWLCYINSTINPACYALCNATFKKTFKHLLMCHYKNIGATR
# Also: assay procedure not described here.
# Chain of Histamine H2 receptor (P25021 whole entry): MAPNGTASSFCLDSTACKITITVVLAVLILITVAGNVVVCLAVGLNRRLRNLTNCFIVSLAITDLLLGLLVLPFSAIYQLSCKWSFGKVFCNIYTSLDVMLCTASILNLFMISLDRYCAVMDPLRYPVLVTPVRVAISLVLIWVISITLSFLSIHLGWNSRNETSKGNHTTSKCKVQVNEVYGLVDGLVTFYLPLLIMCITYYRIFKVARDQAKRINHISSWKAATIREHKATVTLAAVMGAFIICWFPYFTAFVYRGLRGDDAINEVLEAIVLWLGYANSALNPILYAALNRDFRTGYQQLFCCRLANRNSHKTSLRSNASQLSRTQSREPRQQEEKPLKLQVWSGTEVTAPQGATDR
Structure (SMILES),AC50 [1] [µM],AC50 [2] [µM],AC50 [3] [µM],AC50 [4] [µM],AC50 [5] [µM],AC50 [6] [µM],AC50 [7] [µM],AC50 [8] [µM],AC50 [9] [µM],AC50 [10] [µM],AC50 [11] [µM],AC50 [12] [µM],AC50 [13] [µM],AC50 [14] [µM],AC50 [15] [µM],AC50 [16] [µM],AC50 [17] [µM]
O=C(O)/C=C/c1ccc(Cn2ccnc2)cc1 [OZAGREL],> 30,> 30,> 30,> 30,> 30,> 30,> 30,> 30,> 30,> 30,> 30,> 30,> 30,> 30,> 30,> 30,> 30
Cc1ccc(-n2nccn2)c(C(=O)N2CCN(c3nc4cc(Cl)ccc4o3)CC[C@H]2C)c1 [SUVOREXANT],> 30,> 30,> 30,> 30,> 30,> 30,> 30,> 30,> 30,> 30,> 30,> 30,> 30,> 30,> 30,> 30,> 30
CC(C(=O)O)c1ccc(N2Cc3ccccc3C2=O)cc1 (stereo not given) [INDOPROFEN],> 30,> 30,> 30,> 30,> 30,> 30,> 30,> 30,> 30,> 30,> 30,> 30,> 30,> 30,0.51,> 30,> 30
CCC(C(=O)O)c1ccc(N2Cc3ccccc3C2=O)cc1 (stereo not given) [INDOBUFEN],> 30,> 30,> 30,> 30,> 30,> 30,> 30,> 30,> 30,> 30,> 30,> 30,> 30,> 30,> 30,> 30,> 30
CC(C)C(=O)c1c(C(C)C)nn2ccccc12 [IBUDILAST],> 30,> 30,> 30,> 30,–,> 30,> 30,> 30,5.7,> 30,> 30,> 30,> 30,> 30,> 30,> 30,> 30
COc1ccccc1N1CCN(CCCNc2cc(=O)n(C)c(=O)n2C)CC1,> 30,> 30,> 30,4.3,9.5,> 30,> 30,> 30,> 30,> 30,9.5,> 30,–,11,> 30,> 30,> 30
